Experimental findings from PubChem BioAssay (NCI) are described below.

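Following 48 hours of exposure in 96-well plates, responses at five concentrations were used to interpolate endpoints linearly. GI50 = concentration required for 50% inhibition of growth. The concentration for full growth arrest is given as TGI.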 Bounds are passed on as bounds.

Experiment in all cases: growth of human tumour cells (NCI), 48 h
Test [1] concerns SK-MEL-28 melanoma.
For test [2], the system named is T-47D breast.
Test [3] deals with KM12 colon.
The test system of test [4] is HS 578T breast.
Test [5] concerns MCF7 breast.
The test system of test [6] is NCI/ADR-RES ovarian.

Turning to `Cc1ccc(-[n+]2c3cc(N)c(C)cc3nc3cc(C)c(Nc4ccccc4)cc32)cc1`, the GI50 in test [1] is 0.266 µM; in test [2], 0.0886 µM; in test [3] it was 0.0767 µM; in test [4], 0.0734 µM. Further, the TGI in test [1] worked out at 1.33 µM; in test [2], 1.02 µM; in test [3], 0.3 µM; in test [4], 0.415 µM.

As to `COc1nc(N(C)O)nc(N(C)O)n1`, the GI50 in test [1] was 2.41 µM; in test [2] it was 4.51 µM; in test [3], 2.99 µM; in test [5], 2.07 µM. The TGI in test [1], in test [2], in test [3] and in test [5] was over 100 µM throughout.

In the case of `CCOc1cc2ncc(C#N)c(Nc3ccc(OCc4cccc(F)c4)c(Cl)c3)c2cc1NC(=O)CC1CCSS1` (centres undefined), the GI50 in test [1] is 1.2 µM; in test [2], 0.978 µM; in test [3] it was 0.49 µM; in test [6] it was over 25 µM; in test [4], 4.12 µM. Further, the TGI in test [1] is over 19.3 µM; in test [2] it was over 25 µM; in test [3], 1.12 µM; in test [6], over 25 µM; in test [4], over 25 µM.

`N=C1C(c2nc(-c3ccc(Br)cc3)cs2)=C(O)CN1Cc1cccnc1`: the GI50 in test [1] is 15.7 µM; in test [2], 4.89 µM; in test [3] it was 18.9 µM; in test [6], 16.3 µM; in test [5] it was 9.76 µM. Besides, the TGI in test [1] was 51.7 µM; in test [2], 56.1 µM; in test [3], over 100 µM; in test [6] it was over 100 µM; in test [4] it was 2.86 µM; in test [5], over 100 µM.

In the case of `COc1cc(/C(C#N)=C/c2ccc3c(c2OC)OCO3)cc2c1OCO2`, the GI50 is 1.24 µM in test [1]; 6.18 µM in test [2]; 0.0424 µM in test [3]; 0.0346 µM in test [6]; 0.0448 µM in test [4]; 0.0482 µM in test [5]. Further, the TGI in test [1] was over 100 µM; in test [2] it was over 83.6 µM; in test [3] it was over 100 µM; in test [6] it was 0.381 µM; in test [4] it was 0.4 µM; in test [5], over 100 µM.

With `COc1ccc2cc(C(=O)/C=C/c3cc(OC)c(OC)c(OC)c3)ccc2c1`, the GI50 in test [1] was 3.91 µM; in test [2] it was over 50 µM; in test [3], 2.3 µM. Further, the results for the TGI in test [1], in test [2] and in test [3] were 13.8 µM, over 50 µM and 35.7 µM, respectively.

Regarding `COc1ccc(-c2nc3sc(C)cn3c2/C=C/C(=O)c2cc(OC)c(OC)c(OC)c2)cc1`, the GI50 in test [2] was 2.42 µM; in test [3] it was 2.69 µM; in test [6], 2.8 µM; in test [5], 3.13 µM. The TGI in test [2] was 8.94 µM; in test [3] it was 6.39 µM; in test [6], 8.11 µM; in test [5] it was over 100 µM.

For `O=C1NCc2ccc3c(-c4cccc(Cl)c4)c[nH]c3c21`, the GI50 in test [1] was 2.21 µM; in test [2], 0.277 µM; in test [3], 0.196 µM; in test [6], 0.175 µM; in test [4], 0.182 µM; in test [5] it was 0.177 µM. In addition, the TGI in test [1] was over 50 µM; in test [2], over 50 µM; in test [3], over 29.7 µM; in test [6], over 50 µM; in test [4], over 50 µM; in test [5] it was over 50 µM.

As for `C=C1C(=O)O[C@H]2[C@H]1CC/C(COC(=O)c1cc3cc(F)ccc3[nH]1)=C\CC[C@@]1(C)O[C@@H]21`, the GI50 is 1.79 µM in test [1]; 1.98 µM in test [3]; 1.98 µM in test [6]; 2.95 µM in test [4]; 1.02 µM in test [5]. Besides, the TGI in test [1] was 3.69 µM; in test [3], 5.06 µM; in test [6], 5.39 µM; in test [4] it was 18.8 µM; in test [5] it was 3.75 µM.

`N#Cc1c(Sc2ccccc2N)cccc1Sc1ccccc1N`: the GI50 was 51.7 µM in test [2]; 66.7 µM in test [3]; 15.4 µM in test [6]; 22.5 µM in test [4]; 27.9 µM in test [5]. In test [6], the TGI is 38.4 µM.

Regarding `O=c1oc2cc(OS(=O)(=O)c3ccc(F)cc3)ccc2c2c1CCCCC2`, the GI50 in test [1] was over 100 µM; in test [2], 1.86 µM; in test [6], over 100 µM; in test [4], 55.2 µM. The TGI in test [1], in test [2], in test [6] and in test [4] was over 100 µM throughout.

For `Cc1cc(-c2ncc(CC(=O)Nc3ccc(-c4cnccn4)cn3)cc2C)ccn1`, the GI50 in test [1] is 28.2 µM; in test [3] it was 36.1 µM; in test [6], 17.6 µM; in test [4] it was 26 µM; in test [5] it was 19.1 µM. Also, the TGI in test [1], in test [3], in test [6], in test [4] and in test [5] was over 100 µM each time.

On to `C=C1C(=O)O[C@H]2[C@H]1CC/C(Cn1cc(CNC(=O)Cc3cn(C(=O)c4ccc(Cl)cc4)c4ccc(OC)cc34)nn1)=C\CC[C@@]1(C)O[C@@H]21`, for which the GI50 in test [1] was 1.62 µM; in test [2], 1.73 µM; in test [3], 2.78 µM; in test [6] it was 46.3 µM; in test [4] it was 2.61 µM. Also, the TGI in test [1] was 3.07 µM; in test [2] it was 5.05 µM; in test [3] it was 7.23 µM; in test [6], over 100 µM; in test [4], 6.78 µM.

Regarding `COc1cc2c3c(n(C)c(=O)c2cc1OC)-c1cc2c(cc1/C3=C\CCCCCN)OCO2`, the GI50 in test [1] was 33.7 µM; in test [2], 5.61 µM; in test [3], under 0.01 µM; in test [6], 2.6 µM; in test [4], 11.7 µM. The TGI was over 100 µM in test [1]; over 55.5 µM in test [2]; 90.1 µM in test [3]; over 48.8 µM in test [6]; 46.1 µM in test [4].
